Experimental data taken from patent US20110028719A1, “SCREENING METHODS FOR AMYLOID BETA MODULATORS” (priority 2006, published 2011).
Where a name gives a salt, the structure may show the parent alone.

Target: immobilized Aβ fibrils (Homo sapiens, UniProt P05067)
Experiment: FAC-MS assay of free Aβ monomer (indicator) binding to immobilized Aβ fibrils in the presence of test compounds
Settings: for % of Shift: FAC-MS % shift of breakthrough time of free Aβ1-42 monomer (1 μM) on immobilized Aβ fibrils, compounds 1-10 μM in 20 mM NH4OAc, 1% DMSO, void marker M3; for Aβ Shift: FAC-MS screen, shift of free Aβ monomer breakthrough on immobilized Aβ fibrils in presence of compound, scale not given

immobilized Aβ fibrils, sequence (P05067 672-713 limits assumed): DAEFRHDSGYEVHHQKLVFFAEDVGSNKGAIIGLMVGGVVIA

| Aβ Shift | Molecule | also measured |
| --- | --- | --- |
|  | O=S(=O)([O-])OC1C(OS(=O)(=O)[O-])C(OS(=O)(=O)[O-])C(OS(=O)(=O)[O-])C(OS(=O)(=O)[O-])C1OS(=O)(=O)[O-].[K+].[K+].[K+].[K+].[K+].[K+] (centres unmarked) [Compound I-6005, myo-inositol hexasulfate hexapotasium, reference compound] | % of Shift: 4% |
|  | C[C@H]1O[C@H](OC2[C@@H](O)[C@@H](O)C(O)[C@H](O)[C@H]2O)[C@@H](N)C[C@@H]1N=C(N)C(=O)O.Cl (some centres unmarked) [Compound K413, Kasugamycin hydrochloride, reference compound] | % of Shift: 2% |
| 2 | CC1CCCC(NC(=O)Nc2cccs2)C1C (centres unmarked) |  |
| 1 | CCC12CC3CC(O)(C1)CC(C(=O)O)(C3)C2 (centres unmarked) |  |
| 1 | C=CC1CCC(O)C(O)C1 (centres unmarked) |  |
| 1 | O=C(O)C1C2CC3C(C2Cl)C31 (centres unmarked) |  |
| 2 | CC1CCC(C(C)C)C(OCC[N+](C)(C)C)C1 (centres unmarked) |  |
| 2 | CC12CC3CC(C)(C1)CC(c1ccc(O)cc1)(C3)C2 |  |
| 1 | Cc1ccc(C(C)(C)CC(C)NC2CCCC(C)C2C)o1 (centres unmarked) |  |
| 1 | CNC(=O)C12CC3(C)CC(C)(CC(C)(C3)C1)C2 |  |
| 3 | CC(=O)O[C@H]1[C@@H](OC(=O)CC(C)C)[C@H](OC(=O)CC(C)C)[C@@H](OC(=O)CC(C)C)[C@H](OC(=O)CC(C)C)[C@H]1OC(=O)CC(C)C |  |
| 1 | CC1C(C(=O)Nc2ccccc2)CCCC1(C)C(=O)O (centres unmarked) |  |
|  | O=P(O)(O)O[C@@H]1C(O)[C@@H](OP(=O)(O)O)[C@@H](O)C(O)[C@H]1O (stereo partly drawn) [Compound I-3139, D-Myo-inositol-2,4-bis-phosphate, reference compound] | % of Shift: 12% |
|  | O[C@H]1[C@H](O)[C@@H](O)[C@H](O)[C@@H](O)[C@@H]1O [scyllo-cyclohexanehexyl, scyllo-inositol, reference compound] | effect of increasing concentrations on free Aβ monomer binding time (increasing concentrations, breakthrough curves shifted to the left (greater % shift), FIG. 3): dose dependent reduction in the free Aβ monomer binding time |
| 1 | CN(C)C(=O)C12CC3(C)CC(C)(CC(C)(C3)C1)C2 |  |
| 0 | CC1CC(C)CC(OC(=O)c2ccco2)C1 (centres unmarked) |  |
| 1 | CC1CCC(C(C)(C)C)C(O)C1 (centres unmarked) |  |
| 1 | CC12CC3(C)CC(C)(C1)CC(NC(=O)N1CCCC1)(C2)C3 |  |
| 2 | CC1CCCC(NC(=O)Cc2cn(C)c3ccccc23)C1C (centres unmarked) |  |
| 0 | CC1CCN(CC(O)COC2CC(C)CC(C)(C)C2)CC1 (centres unmarked) |  |
| 1 | CC12CC3CC(C)(C1)CC(CNC(=O)c1ccccc1)(C3)C2 |  |
| 2 | CC1CCCC(NC(=O)c2csc3c2CCCC3)C1C (centres unmarked) |  |
| 1 | CC1CCC(C(C)C)C(OC(=O)c2ccncc2)C1 (centres unmarked) |  |

| Aβ Shift | Molecule | also measured |
| --- | --- | --- |
| 1 | COC(=O)C12CC3(C)CC(C)(CC(C)(C3)C1)C2 |  |
| 1 | CC12CC3CC(C)(C1)CC(C(=O)NO)(C3)C2 |  |
| 1 | CC12CC3(C)CC(CC(=O)O)(C1)CC(CC(=O)O)(C2)C3 |  |
| 0 | CC1CC(NC(=O)c2cccc3ccccc23)CC(C)(C)C1 (centres unmarked) |  |
| 2 | O=C(O[C@@H]1[C@@H](OC(=O)c2ccccc2)[C@H](OC(=O)c2ccccc2)[C@H](O)[C@H](OC(=O)c2ccccc2)[C@H]1OC(=O)c1ccccc1)c1ccccc1 |  |
| 1 | CC12CC3(C)CC(C)(C1)CC(N)(C2)C3 |  |
| 1 | CC1CCC(C(C)C)C(OC(=O)CN2CCOCC2)C1 (centres unmarked) |  |
| 1 | COC1CCC(C(C)=O)C(O)C1 (centres unmarked) |  |
| 1 | CC(C)NC(=O)C12CC3(C)CC(C)(CC(C)(C3)C1)C2 |  |
| 1 | CC1CCC(N(CCCN)Cc2ccco2)CC1C (centres unmarked) |  |
|  | O=C(O)[C@]1(O)C[C@@H](O)[C@@H](O)[C@H](O)C1 [Compound 138622, 1R,3R,4R,5R-Quinic acid, reference compound] | % of Shift: 3% |
|  | OC1[C@@H](O)[C@H](O)C(O[C@H]2OC[C@H](O)[C@H](O)[C@H]2O)[C@H](O)[C@H]1O (stereo partly drawn) [Compound A-9826, 2-O-b-L-Arabinopyranosyl myo-inositol, reference compound] | % of Shift: 3% |
| 0 | CC1CC(C)(C(=O)O)CCC1(C)C (centres unmarked) |  |
|  | 1,2,5,6-bis-O-(1-Methylethyldene)-3-methyl-1D-chiro-inositol [Compound 53234-7, reference compound] | % of Shift: 4% |
| 1 | CC12CC3CC(C)(C1)CC(C(=O)N1CCOCC1)(C3)C2 |  |
| 0 | CC(N)C12CC3CC(C)(CC(C)(C3)C1)C2 (centres unmarked) |  |
| 1 | Cc1ccc[n+](CC(=O)OC2CC(C)CCC2C(C)C)c1 (centres unmarked) |  |
| 1 | CCCNC(=O)C12CC3(C)CC(C)(CC(C)(C3)C1)C2 |  |
| 1 | CC1CCC(COC(=O)CN2CCOCC2)C(C)C1 (centres unmarked) |  |
| 4 | CCC(=O)O[C@H]1[C@H](OC(=O)CC)[C@@H](OC(=O)CC)[C@H](OC(=O)CC)[C@@H](OC(=O)CC)[C@H]1OC(=O)CC |  |
| 1 | CC1CCN(C(=O)C23CC4CC(C)(CC(C)(C4)C2)C3)CC1 |  |
| 0 | CC1CCCC(NC(=O)c2nc[nH]n2)C1C (centres unmarked) |  |
| 1 | CC(=O)OCC12COC(C)(CC1C)CC2C (centres unmarked) |  |

| Aβ Shift | Molecule | also measured |
| --- | --- | --- |
|  | CC(C)C(=O)OC1C(OC(=O)C(C)C)C(OC(=O)C(C)C)C(OC(=O)C(C)C)C(OC(=O)C(C)C)C1OC(=O)C(C)C (centres unmarked) [Compound 37387007, 2,3,4,5,6-pentakis(isobutyryloxy)cyclohexyl 2-methylproanoate] | % of Shift: 5% |
| 0 | CC12CC3(C)CC(CC(N)=O)(C1)CC(C(N)=O)(C2)C3 |  |
| 1 | CN(C)C(=S)NC(=O)C12CC3CC(C)(CC(C)(C3)C1)C2 |  |
| 1 | CC(CCc1ccc(O)cc1)NC1CCCC(C)C1C (centres unmarked) |  |
| 0 | OCC1CC(Cl)CC(Cl)C1O (centres unmarked) |  |
| 0 | CC1CC(C(=O)O)CC(C(=O)O)C1 (centres unmarked) |  |
|  | CC(=O)OC1C(OC(=O)C(C)(C)C)C(OC(=O)C(C)(C)C)C(OC(C)=O)C(OC(=O)C(C)(C)C)C1OC(=O)C(C)(C)C (centres unmarked) [Compound 37387004, 2,5-bis(acetoxy)-3,4,6-tris[(2,2-dimethylpropanoyl)oxy]cyclohexyl pivalate] | % of Shift: 4% |
| 0 | CCCCCCCCCC(=O)NC1CCCC(C)C1C (centres unmarked) |  |
| 1 | CC1C2CC3(C)CC1(C)CC(C1(C)CC(=O)O1)(C2)C3 (centres unmarked) |  |
| 2 | CC(C)CC(=O)O[C@@H]1[C@@H](OC(=O)CC(C)C)[C@H](OC(=O)CC(C)C)[C@H](O)[C@H](OC(=O)CC(C)C)[C@H]1OC(=O)CC(C)C |  |
| 2 | CC12CC3(C)CC(C)(C1)CC(C(=O)NCCO)(C2)C3 |  |
| 1 | CC12CC3CC(C)(C1)CC(C(=O)NC1=NCCS1)(C3)C2 |  |
| 1 | CC1CCCC(n2cnc3cc(C(=O)O)ccc32)C1C (centres unmarked) |  |
| 1 | CC1CCC(C(C)C)C(OC(=O)CSC#N)C1 (centres unmarked) |  |
| 0 | CC1(C)CC2(C)CC3=C([C@H](CO)C(C)(C)C3)C(CO)(C1)C2 (some centres unmarked) |  |
| 1 | CC12CC3CC(C)(C1)CC(C(=O)NC(C)(C)CO)(C3)C2 |  |
| 1 | CC(=O)C1C2CC3C(C2Cl)C31 (centres unmarked) |  |
| 2 | CC[N+](CC)(CC)CCCOC1CC(C)CCC1C(C)C (centres unmarked) |  |
|  | OC1C(O)C(O)C(O)C(O)C1O (centres unmarked) [Chiro, chiro-inositol, reference compound] | % of Shift: 2% |
| 1 | CC1CCC(COC(=O)CN2CCCCC2)C(C)C1 (centres unmarked) |  |
| 1 | CC1CCC(C(C)C)C(OCC(O)CN2CCCCC2)C1 (centres unmarked) |  |
| 0 | CC1CC2=C(/C(=N/O)C1)C1(O)CC(C)CC(C)(C2)C1 (centres unmarked) |  |
| 1 | CC1CC(OC(=O)CN2CCCCC2)CC(C)(C)C1 (centres unmarked) |  |

| Aβ Shift | Molecule | also measured |
| --- | --- | --- |
| 1 | CC(=O)c1[nH]c(C)c(C(=O)NC2CCCC(C)C2C)c1C (centres unmarked) |  |
| 2 | O=C(O)C1C2CC3C(OC(=O)C31)C2Cl (centres unmarked) |  |
| 5 | CC(C)(C)C(=O)O[C@@H]1[C@@H](OC(=O)C(C)(C)C)[C@H](OC(=O)C(C)(C)C)[C@H](O)[C@H](OC(=O)C(C)(C)C)[C@H]1OC(=O)C(C)(C)C |  |
| 2 | CC1CCCC(NC(=O)c2n[nH]c(=O)c3ccccc23)C1C (centres unmarked) |  |
| 1 | CN(C)CCNC(=O)C12CC3CC(C)(CC(C)(C3)C1)C2 |  |
| 2 | Cc1ccc(C(=O)OC2CC(C)CCC2C(C)C)cc1C (centres unmarked) |  |
| 0 | Cc1cccc(NC(=O)C23CCC(C)(C(O)C2)C3(C)C)n1 (centres unmarked) |  |
| 2 | CC1CCC(COC(=O)C[N+]2(C)CCCCC2)C(C)C1 (centres unmarked) |  |
| 1 | Cc1cc[n+](CC(=O)OC2CC(C)CCC2C(C)C)cc1 (centres unmarked) |  |
| 1 | CC(=O)NC12CC3(C)CC(C)(C1)CC(NC(C)=O)(C3)C2 |  |
| 0 | CC1CCC(C(C)C)C(OC(=O)C2C3CCCCC32)C1 (centres unmarked) |  |
|  | CC(C)C(=O)OC1C(O)C(OC(=O)C(C)C)C(OC(=O)C(C)C)C(OC(=O)C(C)C)C1OC(=O)C(C)C (centres unmarked) [Compound 37387001, 2-hydroxy-3,4,5,6-tetrakis(isobutyryloxy)cyclohexyl 2-methylpropanoate] | % of Shift: 4% |
| 1 | OCC1(CO)CCCC(CO)(CO)C1O |  |
|  | CC(=O)OC1C(OC(=O)CC(C)C)C(OC(=O)CC(C)C)C(OC(=O)CC(C)C)C(OC(=O)CC(C)C)C1OC(=O)CC(C)C (centres unmarked) [Compound 37387013, 2-(acetyloxy)-3,4,5,6-tetrakis[(3-methylbutanoyl)oxy]cyclohexanyl 3-methylbutanoate] | % of Shift: 3% |
| 0 | CC1CCCC(NC(=O)CCC2CCCCC2)C1C (centres unmarked) |  |
| 1 | CC12CC3(C)CC(N)(C1)CC(O)(C2)C3 |  |
| 1 | COC(=O)C1(C)CC2(C)CC(C)(C1)C(=O)N(C)C2=O (centres unmarked) |  |
|  | [H]/N=C(/N)N[C@H]1[C@H](O)[C@@H](O)[C@H](O[C@@H]2O[C@@H](C)[C@](O)(C=O)[C@H]2O[C@@H]2O[C@@H](CO)[C@H](O)[C@@H](O)[C@@H]2NC)[C@@H](N/C(N)=N\[H])[C@@H]1O [Compound 56501, Streptomycin sulfate, reference compound] | % of Shift: 1% |
| 0 | CC12CC3(C)CC(C)(C1)CC(C1(C)CC(=O)O1)(C2)C3 (centres unmarked) |  |
| 2 | O=C(O)C12CC3CC(C(=O)O)(C1)CC(C(=O)O)(C3)C2 |  |
| 1 | CC12CC3CC(C)(C1)CC(C(=O)Nc1nnn[nH]1)(C3)C2 |  |
| 0 | COc1ccc(C2(O)C(C)CCCC2C)cc1 (centres unmarked) |  |

| Molecule | Aβ Shift | also measured |
| --- | --- | --- |
| C/C(=N\O)C(=O)OC1CC(C)CCC1C(C)C (centres unmarked) | 1 |  |
